Experimental data: patent US20250243196A1, “CITRON KINASE INHIBITORS” (The Cleveland Clinic Foundation, priority 2021, published 2025)

What was measured:
[1] = target: NanoLuc-CITK (full-length human CITK) (Homo sapiens (Human), UniProt O14578); test: NanoBRET intracellular target engagement assay; assay type: cell-based
Description: In-cell Kd values were evaluated with a NanoBRET Target Engagement Assay essentially as recommended by the manufacturer (Promega Corporation—for details see https://www.promega.com/resources/technologies/nanoluc-luciferase-enzyme/cellular-target-engagement/).
HEK293T cells were transfected with 5.0 μg/mL sterile NanoLuc-CITK DNA, 5.0 μg/mL Transfection Carrier DNA, and 30 μL/mL FugeneHD® (Promega) in Opti-Mem™ (Thermo) media at a cell density of 250,000 cells/mL. […] 5 μL of the 25× Tracer K10 solution was added to each well. Next, designated inhibitors were prepared from powder as 10 mM DMSO stocks and then further diluted to 10× the final assay concentration in Opti-Mem™. 12-pt dose-response curves were prepared by 3×-serial dilution. […] A 3× Complete Substrate+Inhibitor solution, containing 6 mL of Opti-Mem™, 36 μL of NanoBRET Nano-Glo Substrate, and 12 μL Extracellular NanoLuc Inhibitor was freshly prepared for each plate. 50 μL of the 3× Complete Substrate+Inhibitor solution was added to all wells and the plate was incubated for 2 min with 500 RPM shaking. The bottom of the plates were covered with black plate seals and then measured on a Cytation 5 plate reader (Biotek) with a NanoBRET Filter Cube (Biotek; 450/50 emission & 610LP emission). Background corrected BRET ratios (in mBU) were calculated in Excel and IC50's were subsequently extracted using four-parameter non-linear regression in GraphPad Prism 8.

[2] = target: ACK1 (Homo sapiens (Human), UniProt Q07912); test: KinaseProfiler radiometric assay (14-756KP); assay type: biochemical; conditions: mean of at least two independent experiments
Description: (§1) In some embodiments, the step of contacting the sample with the compound comprises administering the compound to a subject (e.g., a subject) suffering from cancer. Methods of determining kinase inhibition are well known in the art. For example, kinase activity of an enzyme and the inhibitory capacity of a test compound can be determined by measuring enzyme specific phosphorylation of a substrate. Commercial assays and kits can be employed. For example, kinase inhibition can be determined using a radiometric binding assay, such as using KinaseProfiler™ technology (Eurofins Discovery). This assay method directly detects product formation without the use of modified substrates or coupling enzymes. Test compounds are incubated with kinase, substrate, required cofactors and radioisotope labeled ATP. Following incubation, unreacted radioactive ATP is removed by washing and incorporation of the radiolabeled phosphate into the kinase substrate is assayed to detect phosphoryltransferase activity, which is directly proportional to the amount of phosphorylated substrate. Inhibition of the kinase by a kinase inhibitor prevents phosphorylation of the substrate and thereby limits the incorporation of radiolabeled phosphate. Such an assay is compatible with a microwell assay format, allowing simultaneous determination of IC50 of multiple compounds.

[3] = target: IKKβ (Homo sapiens (Human), UniProt O14920); test: KinaseProfiler radiometric assay (14-485KP); assay type: biochemical; conditions: mean of at least two independent experiments
Description: as §1, with “In another aspect, disclosed is a method of inhibiting citron kinase in a sample, comprising contacting the sample with a compound described herein (e.g., a compound of formula (I) or a pharmaceutically acceptable salt thereof), or a pharmaceutical composition described herein (e.g., a pharmaceutical composition comprising a compound of formula (I) or a pharmaceutically acceptable salt thereof), in an amount effective to inhibit citron kinase. In some” for “In some”
(§2) The effect of various compounds on the inhibition of other kinases has also been determined. Table 2 reports measured IC50 values; value units are nanomolar inhibition.

[4] = target: HIPK4 (Homo sapiens (Human), UniProt Q8NE63); test: KinaseProfiler radiometric assay (15-003KP); assay type: biochemical; conditions: mean of at least two independent experiments
Description: (§3) In another aspect, disclosed is a method of inhibiting citron kinase in a sample, comprising contacting the sample with a compound described herein (e.g., a compound of formula (I) or a pharmaceutically acceptable salt thereof), or a pharmaceutical composition described herein (e.g., a pharmaceutical composition comprising a compound of formula (I) or a pharmaceutically acceptable salt thereof), in an amount effective to inhibit citron kinase. In some embodiments, the step of contacting the sample with the compound comprises administering the compound to a subject (e.g., a subject) suffering from cancer. Methods of determining kinase inhibition are well known in the art. For example, kinase activity of an enzyme and the inhibitory capacity of a test compound can be determined by measuring enzyme specific phosphorylation of a substrate. Commercial assays and kits can be employed. For example, kinase inhibition can be determined using a radiometric binding assay, such as using KinaseProfiler™ technology (Eurofins Discovery). This assay method directly detects product formation without the use of modified substrates or coupling enzymes. […]
as §2

[5] = target: Mnk2 (Homo sapiens (Human), UniProt Q9HBH9); test: KinaseProfiler radiometric assay (14-664KP); assay type: biochemical; conditions: mean of at least two independent experiments
Description: as §3, §2

[6] = target: PKAα (Homo sapiens (Human), UniProt P17612); test: KinaseProfiler radiometric assay (14-440KP); assay type: biochemical; conditions: mean of at least two independent experiments
Description: as §1, with “In another aspect, disclosed is a method of inhibiting citron kinase in a sample, comprising contacting the sample with a compound described herein (e.g., a compound of formula (I) or a pharmaceutically acceptable salt thereof), or a pharmaceutical composition described herein (e.g., a pharmaceutical composition comprising a compound of formula (I) or a pharmaceutically acceptable salt thereof), in an amount effective to inhibit citron kinase. In some” for “In some”
as §2

[7] = target: ROCK-2 (Homo sapiens (Human), UniProt O75116); test: KinaseProfiler radiometric assay (14-451KP); assay type: biochemical; conditions: mean of at least two independent experiments
Description: as §1, with “In another aspect, disclosed is a method of inhibiting citron kinase in a sample, comprising contacting the sample with a compound described herein (e.g., a compound of formula (I) or a pharmaceutically acceptable salt thereof), or a pharmaceutical composition described herein (e.g., a pharmaceutical composition comprising a compound of formula (I) or a pharmaceutically acceptable salt thereof), in an amount effective to inhibit citron kinase. In some” for “In some”
as §2

[8] = target: BIKE (Homo sapiens (Human), UniProt Q9NSY1); test: KinaseProfiler radiometric assay (16-044KP); assay type: biochemical; conditions: mean of at least two independent experiments
Description: as §3, §2

[9] = target: AAK1 (Homo sapiens (Human), UniProt Q2M2I8); test: KinaseProfiler radiometric assay (16-043KP); assay type: biochemical; conditions: mean of at least two independent experiments
Chain of AAK1 (Q2M2I8 whole entry): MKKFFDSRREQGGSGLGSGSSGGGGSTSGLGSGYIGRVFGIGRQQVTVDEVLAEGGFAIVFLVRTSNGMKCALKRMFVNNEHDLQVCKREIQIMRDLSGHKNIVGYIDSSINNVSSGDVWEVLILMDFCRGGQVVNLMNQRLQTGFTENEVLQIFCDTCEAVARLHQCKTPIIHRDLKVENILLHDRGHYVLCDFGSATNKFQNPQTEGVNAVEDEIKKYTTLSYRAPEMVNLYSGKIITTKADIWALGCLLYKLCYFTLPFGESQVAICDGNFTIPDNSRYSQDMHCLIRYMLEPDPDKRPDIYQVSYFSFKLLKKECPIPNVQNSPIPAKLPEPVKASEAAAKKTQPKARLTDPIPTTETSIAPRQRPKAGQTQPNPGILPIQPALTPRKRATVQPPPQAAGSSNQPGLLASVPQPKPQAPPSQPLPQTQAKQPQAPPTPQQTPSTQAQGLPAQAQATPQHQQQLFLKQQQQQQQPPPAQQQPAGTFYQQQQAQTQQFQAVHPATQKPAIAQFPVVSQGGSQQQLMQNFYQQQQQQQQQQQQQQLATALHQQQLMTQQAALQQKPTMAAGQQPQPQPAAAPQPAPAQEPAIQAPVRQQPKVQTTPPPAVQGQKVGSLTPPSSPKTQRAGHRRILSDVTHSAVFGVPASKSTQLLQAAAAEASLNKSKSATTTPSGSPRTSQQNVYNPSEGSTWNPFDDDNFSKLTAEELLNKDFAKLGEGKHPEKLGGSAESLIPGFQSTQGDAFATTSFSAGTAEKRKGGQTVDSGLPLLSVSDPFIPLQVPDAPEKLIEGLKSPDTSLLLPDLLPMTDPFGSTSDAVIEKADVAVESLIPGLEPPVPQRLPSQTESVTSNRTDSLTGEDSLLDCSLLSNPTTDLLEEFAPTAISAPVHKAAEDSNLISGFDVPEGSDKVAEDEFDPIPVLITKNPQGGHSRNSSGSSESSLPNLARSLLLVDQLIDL
Description: as §3, §2

[10] = target: Citron kinase (Homo sapiens (Human), UniProt O14578); test: Radiometric citron kinase assay (Eurofins Cat #16-040KP); assay type: biochemical; conditions: mean of at least two independent assays; read-out: Radiometric CitK IC50
Chain of Citron kinase (O14578 whole entry): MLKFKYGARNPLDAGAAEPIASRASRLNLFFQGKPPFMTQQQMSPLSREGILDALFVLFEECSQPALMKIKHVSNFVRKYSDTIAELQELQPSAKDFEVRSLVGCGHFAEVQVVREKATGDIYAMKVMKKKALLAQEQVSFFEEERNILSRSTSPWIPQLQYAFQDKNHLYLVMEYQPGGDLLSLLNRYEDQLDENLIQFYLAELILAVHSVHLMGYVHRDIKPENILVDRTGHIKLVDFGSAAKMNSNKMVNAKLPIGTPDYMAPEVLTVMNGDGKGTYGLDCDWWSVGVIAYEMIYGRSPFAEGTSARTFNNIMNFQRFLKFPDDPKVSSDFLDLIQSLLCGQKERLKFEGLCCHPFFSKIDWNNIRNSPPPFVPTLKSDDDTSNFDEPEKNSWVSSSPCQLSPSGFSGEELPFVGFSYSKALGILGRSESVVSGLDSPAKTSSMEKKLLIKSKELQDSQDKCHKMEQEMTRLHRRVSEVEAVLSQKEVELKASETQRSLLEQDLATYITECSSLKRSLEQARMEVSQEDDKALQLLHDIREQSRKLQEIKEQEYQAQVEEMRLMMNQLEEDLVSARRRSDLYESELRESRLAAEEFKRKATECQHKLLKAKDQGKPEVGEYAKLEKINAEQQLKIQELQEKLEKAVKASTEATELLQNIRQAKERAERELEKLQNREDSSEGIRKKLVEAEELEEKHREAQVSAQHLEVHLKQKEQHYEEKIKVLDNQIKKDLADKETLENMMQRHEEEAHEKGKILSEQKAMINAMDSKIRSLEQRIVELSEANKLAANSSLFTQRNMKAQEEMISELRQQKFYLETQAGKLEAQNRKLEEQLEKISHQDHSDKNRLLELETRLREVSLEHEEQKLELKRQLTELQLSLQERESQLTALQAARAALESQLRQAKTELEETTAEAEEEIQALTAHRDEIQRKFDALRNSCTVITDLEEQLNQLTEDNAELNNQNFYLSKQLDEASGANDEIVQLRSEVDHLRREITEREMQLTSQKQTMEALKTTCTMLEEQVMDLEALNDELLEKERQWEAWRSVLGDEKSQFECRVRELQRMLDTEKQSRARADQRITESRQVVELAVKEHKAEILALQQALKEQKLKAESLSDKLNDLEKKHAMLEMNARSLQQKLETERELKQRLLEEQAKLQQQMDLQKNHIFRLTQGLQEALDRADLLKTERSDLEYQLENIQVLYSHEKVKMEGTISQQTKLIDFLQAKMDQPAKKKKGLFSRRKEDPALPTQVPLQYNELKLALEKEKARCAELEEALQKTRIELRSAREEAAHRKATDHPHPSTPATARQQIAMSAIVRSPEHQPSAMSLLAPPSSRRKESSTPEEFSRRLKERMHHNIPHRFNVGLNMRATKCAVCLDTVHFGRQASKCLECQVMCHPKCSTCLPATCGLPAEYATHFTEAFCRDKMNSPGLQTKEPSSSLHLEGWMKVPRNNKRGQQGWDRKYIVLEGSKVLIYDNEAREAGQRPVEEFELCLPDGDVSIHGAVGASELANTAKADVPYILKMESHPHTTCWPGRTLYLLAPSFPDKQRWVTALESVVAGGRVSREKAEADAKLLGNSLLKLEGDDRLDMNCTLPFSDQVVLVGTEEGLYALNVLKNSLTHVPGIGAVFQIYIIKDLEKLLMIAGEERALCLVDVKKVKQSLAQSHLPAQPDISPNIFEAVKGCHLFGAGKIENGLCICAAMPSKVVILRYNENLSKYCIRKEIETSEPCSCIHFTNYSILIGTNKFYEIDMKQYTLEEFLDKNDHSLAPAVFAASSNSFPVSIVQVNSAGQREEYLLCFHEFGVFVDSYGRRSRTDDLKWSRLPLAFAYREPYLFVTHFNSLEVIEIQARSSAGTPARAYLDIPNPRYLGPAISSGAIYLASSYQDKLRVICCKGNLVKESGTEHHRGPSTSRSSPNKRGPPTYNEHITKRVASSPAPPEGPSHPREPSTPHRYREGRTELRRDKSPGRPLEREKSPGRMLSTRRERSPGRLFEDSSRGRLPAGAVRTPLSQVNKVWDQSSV
How it was run: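 Radiometric KinaseProfiler format: test compound incubated with kinase, substrate, cofactors and radiolabelled ATP; unreacted ATP washed away and radiolabelled phosphate incorporated into substrate measured. IC50 derived from inhibition of phosphorylation. Values are means of at least two independent assays.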

[11] = target: DRAK2 (Homo sapiens (Human), UniProt O94768); test: KinaseProfiler radiometric assay (16-003KP); assay type: biochemical; conditions: mean of at least two independent experiments
Description: as §1

Chain of NanoLuc-CITK (full-length human CITK) (O14578 other isoform, or with tags, fused parts or gaps): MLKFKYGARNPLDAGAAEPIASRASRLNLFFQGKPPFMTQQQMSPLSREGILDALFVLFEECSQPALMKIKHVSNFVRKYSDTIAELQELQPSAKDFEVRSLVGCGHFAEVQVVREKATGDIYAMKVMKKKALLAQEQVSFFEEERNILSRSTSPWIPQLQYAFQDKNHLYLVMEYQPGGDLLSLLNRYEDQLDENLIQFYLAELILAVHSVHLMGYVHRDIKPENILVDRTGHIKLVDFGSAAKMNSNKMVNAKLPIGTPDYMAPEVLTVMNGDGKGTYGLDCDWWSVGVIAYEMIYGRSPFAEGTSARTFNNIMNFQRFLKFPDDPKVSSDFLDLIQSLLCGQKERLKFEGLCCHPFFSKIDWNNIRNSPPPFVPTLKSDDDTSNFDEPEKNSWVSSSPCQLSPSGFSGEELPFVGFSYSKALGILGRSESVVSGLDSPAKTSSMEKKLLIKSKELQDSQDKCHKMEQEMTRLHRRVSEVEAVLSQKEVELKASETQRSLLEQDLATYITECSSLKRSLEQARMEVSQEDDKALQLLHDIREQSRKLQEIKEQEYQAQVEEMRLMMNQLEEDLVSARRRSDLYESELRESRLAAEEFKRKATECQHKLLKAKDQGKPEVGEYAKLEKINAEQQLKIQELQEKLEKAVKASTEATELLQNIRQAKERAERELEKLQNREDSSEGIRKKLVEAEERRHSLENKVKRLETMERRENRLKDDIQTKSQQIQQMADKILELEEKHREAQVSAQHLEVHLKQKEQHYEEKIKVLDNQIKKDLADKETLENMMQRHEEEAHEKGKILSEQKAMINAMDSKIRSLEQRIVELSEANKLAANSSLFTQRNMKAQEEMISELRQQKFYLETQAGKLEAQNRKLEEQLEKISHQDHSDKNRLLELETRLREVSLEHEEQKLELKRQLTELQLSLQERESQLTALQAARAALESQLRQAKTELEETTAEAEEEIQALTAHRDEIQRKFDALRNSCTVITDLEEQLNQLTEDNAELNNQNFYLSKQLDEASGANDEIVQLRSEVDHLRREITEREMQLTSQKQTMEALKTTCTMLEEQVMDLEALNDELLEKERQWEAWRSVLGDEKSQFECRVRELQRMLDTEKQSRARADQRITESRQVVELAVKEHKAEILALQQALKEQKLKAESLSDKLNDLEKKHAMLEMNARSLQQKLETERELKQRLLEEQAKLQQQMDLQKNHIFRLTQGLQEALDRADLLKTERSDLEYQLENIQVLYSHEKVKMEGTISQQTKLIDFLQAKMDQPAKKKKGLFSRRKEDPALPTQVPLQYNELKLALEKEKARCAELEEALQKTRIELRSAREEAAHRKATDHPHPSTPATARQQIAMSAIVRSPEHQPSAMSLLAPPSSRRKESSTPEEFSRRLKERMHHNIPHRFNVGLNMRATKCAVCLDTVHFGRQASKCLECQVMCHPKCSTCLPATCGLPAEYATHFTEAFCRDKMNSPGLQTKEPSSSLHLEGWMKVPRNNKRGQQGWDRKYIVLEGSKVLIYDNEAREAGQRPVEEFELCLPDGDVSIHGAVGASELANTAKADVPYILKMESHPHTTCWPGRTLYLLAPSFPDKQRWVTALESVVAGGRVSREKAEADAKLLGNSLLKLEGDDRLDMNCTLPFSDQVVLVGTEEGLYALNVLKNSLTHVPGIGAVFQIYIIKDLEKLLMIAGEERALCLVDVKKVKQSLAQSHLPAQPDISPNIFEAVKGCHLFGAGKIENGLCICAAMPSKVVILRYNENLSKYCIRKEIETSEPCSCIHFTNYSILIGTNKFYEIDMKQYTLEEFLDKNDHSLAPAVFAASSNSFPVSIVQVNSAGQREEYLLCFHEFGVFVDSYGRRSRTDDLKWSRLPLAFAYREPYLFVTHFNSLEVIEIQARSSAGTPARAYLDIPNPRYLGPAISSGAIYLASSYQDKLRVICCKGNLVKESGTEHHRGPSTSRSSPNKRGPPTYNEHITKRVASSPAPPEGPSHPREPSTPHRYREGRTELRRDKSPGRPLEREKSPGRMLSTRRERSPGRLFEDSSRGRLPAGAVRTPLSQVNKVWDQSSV

In the case of `Cc1cc2c(-c3ccc(NC(=O)[C@H](N)C(C)(C)O)cc3C)ccnc2[nH]1` [Compound F-140, (2R)-2-Amino-3-hydroxy-3-methyl-N-[3-methyl-4-(2-methyl-1H-pyrrolo[2,3-b]pyridin-4-yl)phenyl]butanamide], the Kd [1] is reported as 108 nM, the IC50 ([1]; HEK293T cells transfected with NanoLuc-CITK, Tracer K10 1 μM, 2 hours) is reported as 0.58 µM and the IC50 [2] is reported as > 3 µM. For the same molecule, the IC50 [3] was > 3 µM, the IC50 [4] was > 3 µM and the IC50 [5] was 1.99 µM. For the same molecule, the IC50 [6] was > 3 µM, the IC50 [7] was > 3 µM and the IC50 [8] was > 3 µM. The IC50 [9] was 1.91 µM, the IC50 [10] was 0.04 µM and the IC50 [11] was > 3 µM.
